Patent US20060142193A1, “Selective inhibition of rock1 in cardiac therapy” (BAYLOR COLLEGE OF MEDICINE, priority 2004, published 2006)
Entries after “also recorded” stand apart in the source; their conditions may differ.

Key:
[1] = test system: human growth hormone (hGH) transgene; assay: Cardiac-specific RU486-inducible gene-switch expression of human growth hormone in bi-transgenic mice; type: in vivo, mouse; details: after 4 days of administration, dose-dependent, estimated
Procedure: Expression of the transgene is induced in all 4 chambers of the bi-transgenic hearts by administration of RU486 for 4 days. […] The serum level of hGH was measured by radioimmunoassay.

[2] = test system: angiotensin II-infused rats; details: administration of fasudil; cited from earlier work
[3] = test system: ROCK1; assay: ROCK1 cleavage in doxorubicin-treated cultured neonatal rat cardiomyocytes (Western blot); type: cell-based
Excerpt: To determine if ROCK1 is cleaved by caspase 3 in apoptotic cardiomyocytes, the present inventors subjected cultured rat neonatal cardiomyocytes to doxorubicin treatment, which is a potent apoptotic inducer. The 130 kDa cleavage fragment of ROCK1 was detected in doxorubicin-treated myocytes as well as the cleaved PARP. In contrast, cleavage of ROCK2 was not observed. In addition, cleavage of ROCK1 is caspase 3-dependent, as the 130 kDa species was not detected in the presence of caspase 3 inhibitor, Z-VAD.
(§1) Cell culture, plasmid constructs, and recombinant adenoviruses. Neonatal rat cardiomyocytes were isolated and cultured in DMEM/F12 medium (1:1) with 10% horse serum (DF10); cells were ready for transfection or virus infection 40 hours after plating. For immunostaining, cells were cultured on pre-coated (with 0.2% gelatin) coverslips. Transfections were performed using LipofectAMINE 2000 (Invitrogen) with Opti-MEM I Reduced Serum Medium (Invitrogen). After 6 hr or O/N, cells were cultured in DF10. With human embryonic kidney (HEK) A293T cells, cells were cultured in DMEM with 10% fetal bovine serum. The cDNA for full length human ROCK-1 cloned into the pCAG-myc vector (pCAG-ROCK-1) was kindly provided by Dr. Narumiya. All ROCK-1 and mutant constructs were tagged with a Myc epitope at the amino-terminus. The Asp718-MscI cDNA fragment encoding ROCKΔ1 mutant (residues 1-1080) was also cloned into the pCAG-myc vector (pCAG-ROCKΔ1) (Ishizaki et al., 1997). A signal lysine at residue 105 was replaced by alanine to generate a kinase deficient mutant, pCAG-ROCK-1KD. The adenoviral vector, Ad-G/iCasp 3, expressing conditional caspase 3, was generously provided by Drs. David Spencer and Kevin Slawin at Baylor College of Medicine. Addition of CID, AP20187 (50 nM, 24 hr), provoked the aggregation and activation of caspase 3 as well as rapid apoptosis (Shariat et al., 2001; Mallet et al., 2002).
Western blot and Malachite green assay. Anti-ROCK-1, caspase 3, PARP, His, α-actin antibodies (Santa Cruz), anti-phospho-AKTser473 (Cell Signaling) and anti-RTEN (Upstate) were purchased. Protein samples for Western blot were prepared and separated as described earlier (Chang et al., 2000). Even loadings were confirmed by Ponceau staining and antibody probed for actin. PTEN activity was evaluated by Malachite green assay (Upstate). 500 μg of cell lysate protein was used for immunoprecipitation.

[4] = test system: caspase 3; assay: Ceramide-induced caspase 3 activation and apoptosis in cardiomyocytes (caspase 3 sensor, fluorescent staining); type: cell-based, rat; details: without siRNA treatment
Procedure: Apoptosis assay and immunofluorescence analysis. Apoptosis was evaluated using caspase 3 activity and poly(ADP-ribose) polymerase (PARP) cleavage with Western blot in human and mouse heart tissues. With regard to apoptotic cultured neonatal cardiomyocytes, a caspase 3 sensor (BD Biosciences) was introduced to detect the onset of caspase 3 activity (FIG. 9). The vector encodes EYFP (enhanced yellow fluorescent protein) fused with NES (nuclear export signal) and NLS (nuclear localization signal). A caspase 3 specific cleavage site is located between EYFP and NES. […] Upon induction of apoptosis, the export signal is removed by active caspase 3, which triggers the redistribution of EYFP from the cytosol to the nucleus via NLS. The quantification was performed by counting the number of transfected cells with the nuclear localization of fluorescent fusion protein over the total transfected cells. Alexa Fluor 594 phalloidin staining (Molecular Probes) and DAPI staining were applied for F-actin and cellular nuclei visualization, respectively.
siRNAs application for ROCK-1 and PTEN knockdown and ceramide-induced apoptosis. To knockdown ROCK-1 expression in neonatal rat cardiomyocytes, 100 nM siRNA (Ambion) was used with co-transfection of caspase 3 sensor vector as described above. Same amount of siRNA specific for PTEN (Ambion) was applied to human HEK cells. […]

[5] = test system: conditional caspase 3 (iCasp3); assay: ROCK1 cleavage in cardiomyocytes infected with Ad-G/iCasp3 (conditional caspase 3) and treated with CID; type: cell-based, rat; details: for 130 kDa cleavage fragment of ROCK1: cardiomyocytes infected with Ad-G/iCasp3 and treated with CID
Excerpt: To analyze direct effect of caspase 3 activation on ROCK1 cleavage, the present inventors introduced a conditional caspase 3 via an adenoviral-mediated expression system in cultured rat neonatal cardiomyocytes. The adenoviral vector, Ad-G/iCasp3, has been described previously (Shariat et al., 2001; Mallet et al., 2002). This vector expresses a conditional caspase 3 (iCasp3), in which the human caspase 3 was fused to a modified FK506-binding domain, containing a binding site for a non-toxic chemical inducer of dimerization (CID), AP20187. Addition of CID leads to the aggregation and activation this caspase, and a rapid apoptosis in prostate cancer cells (Shariat et al., 2001; Mallet et al., 2002). This is depicted in FIG. 8C.
as §1, with “Addition of CID, AP20187 (50 nM, 24 hr), provoked the aggregation and activation of caspase 3 as well as rapid apoptosis (Shariat et al., 2001; Mallet et al., 2002).” left out

[6] = test system: myeline basic protein (MBP) kinase (MBP-kinase); assay: Kinase-Glo luminescent kinase assay; type: biochemical; details: SRF-N as substrate, ATP
Procedure: In a particular embodiment, the Kinase-Glo luminescent kinase assay from Promega (Madison, Wis.) is employed, which comprises a method of measuring kinase activity by quantifying the amount of ATP remaining in solution following a kinase reaction. […] In additional embodiments, the Km and/or kcat for SRF-N against MBP-Kinase and the IC50 or Ki for PH domain are measured, such as by standard methods in the art.
FIG. 25B illustrates the role of ROCK in processing of its substrates in the presence of ATP.

[7] = test system: protein kinases A and C; details: lower affinity than that for Rho kinase; cited from earlier work
[8] = test system: Dahl salt-sensitive hypertensive rats; details: administration to Dahl salt-sensitive hypertensive rats; cited from earlier work
[9] = test system: early chick embryos; details: treated early chick embryos; cited from earlier work
[10] = doxorubicin-treated myocytes, Western blot

Compound: CC#C[C@]1(O)CC[C@H]2[C@@H]3CCC4=CC(=O)CCC4=C3[C@@H](c3ccc(N(C)C)cc3)C[C@@]21C [RU486]
- inducible level of hGH in the transgenic heart versus the basal level [1]: 100 to 1000 fold

Compound: O=S(=O)(c1cccc2cnccc12)N1CCCNCC1 [fasudil]
- effect on angiotensin II-induced cardiovascular changes [2]: suppresses angiotensin II-induced coronary vascular hypertrophy, endothelial dysfunction and cardiomyocyte hypertrophy

Compound: COc1cccc2c1C(=O)c1c(O)c3c(c(O)c1C2=O)C[C@@](O)(C(=O)CO)C[C@@H]3O[C@H]1C[C@H](N)[C@H](O)[C@H](C)O1 [doxorubicin]
- cleavage of ROCK2 ([3]; doxorubicin-treated myocytes): not observed
- 130 kDa cleavage fragment of ROCK1 [3, 10]: detected; also recorded: revealed cleavages
- cleaved PARP [3, 10]: detected; also recorded: revealed cleavages
- cleavage of SRF ([3]; doxorubicin-treated neonatal cardiomyocytes, data not shown): not detectable

Compound: Z-VAD
- 130 kDa ROCK1 species in presence of caspase 3 inhibitor ([3]; doxorubicin-treated myocytes plus inhibitor): not detected; also recorded: blocked the cleavage

Compound: ceramide
- induction of caspase 3 activation and cellular apoptosis [4]: strongly induced caspase 3 activation

Compound: CC[C@H](C(=O)N1CCCC[C@H]1C(=O)O[C@H](CCc1ccc(OC)c(OC)c1)c1cccc(OCC(=O)NCC(CNC(=O)COc2cccc([C@@H](CCc3ccc(OC)c(OC)c3)OC(=O)[C@@H]3CCCCN3C(=O)[C@@H](CC)c3cc(OC)c(OC)c(OC)c3)c2)CN(C)C)c1)c1cc(OC)c(OC)c(OC)c1 [AP20187]
- cleavage of SRF ([5]; Ad-G/iCasp3 in the presence of CID, data not shown): not detectable
- 130 kDa cleavage fragment of ROCK1 [5]: detected
- 130 kDa cleavage fragment of ROCK1 ([5]; listed as CID): cleavage of ROCK-1 only in the presence of CID

Compound: C[C@@H](N)[C@H]1CC[C@H](C(=O)Nc2ccncc2)CC1 [Y27632]
- inhibition activity against MBP-kinase [6]: inhibition activity
- affinity for protein kinases A and C relative to Rho kinase [7]: about 200 times
- effect on cardiac hypertrophy and remodeling [8]: regression of cardiac hypertrophy and decreased pathological remodeling
- expression of cardiac α-actin (early cardiac differentiation marker) [9]: precocious expression of cardiac α-actin was observed
